Results published in ChEMBL document CHEMBL1201862, “PubChem BioAssay data set” (2004).
Where “and” joins values, the source holds several entries; their conditions need not be identical. Equal values may be shown once.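 Dose response: 5 concentrations. Exposure: 48 h. Format: 96-well plates. Endpoint: linear interpolation; highest concentration if not reached. Abbreviation: GI50, concentration required for 50% inhibition of growth.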 Calls of active or inactive are those of the source. No stated cut-off is given here; in the data, active = GI50 up to about 1.1 µM and inactive = higher.

How the values were obtained:
Assay in all cases: NCI-60 cell line screen, 48 h
[1] = tested on: SN12C
[2] = tested on: PC-3
[3] = tested on: HCT-116
[4] = tested on: UO-31
[5] = tested on: MDA-N
[6] = tested on: HOP-92
[7] = tested on: NCI/ADR-RES
[8] = tested on: OVCAR-3
[9] = tested on: UACC-257
[10] = tested on: A549
[11] = tested on: T47D
[12] = tested on: NCI-H23
[13] = tested on: COLO 205
[14] = tested on: SK-MEL-2
[15] = tested on: CAKI-1
[16] = tested on: HT-29
[17] = tested on: MDA-MB-435
[18] = tested on: LOX IMVI
[19] = tested on: SK-MEL-5
[20] = tested on: NCI-H226
[21] = tested on: TK-10
[22] = tested on: BT-549
[23] = tested on: RXF 393
[24] = tested on: IGROV-1
[25] = tested on: K562
[26] = tested on: A498
[27] = tested on: SF-268
[28] = tested on: 786-0
[29] = tested on: EKVX
[30] = tested on: SK-MEL-28
[31] = tested on: HCT-15
[32] = tested on: RPMI-8226
[33] = tested on: MCF7
[34] = tested on: ACHN
[35] = tested on: M14
[36] = tested on: SF-295
[37] = tested on: MDA-MB-231
[38] = tested on: NCI-H522
[39] = tested on: OVCAR-5
[40] = tested on: HOP-62
[41] = tested on: KM12
[42] = tested on: UACC-62
[43] = tested on: OVCAR-8
[44] = tested on: SNB-19
[45] = tested on: OVCAR-4
[46] = tested on: DU-145
[47] = tested on: Malme-3M
[48] = tested on: U-251
[49] = tested on: NCI-H460
[50] = tested on: SW-620
[51] = tested on: CCRF-CEM
[52] = tested on: SNB-75
[53] = tested on: SK-OV-3
[54] = tested on: HL-60
[55] = tested on: MOLT-4
[56] = tested on: SR
[57] = tested on: HCC 2998
[58] = tested on: SF-539
[59] = tested on: Hs-578T

Measured: GI50

NC(=O)Nc1ccc(S(=O)(=O)Nc2ccc(S(N)(=O)=O)cc2)cc1
inactive: [1] > 100 µM | [2] > 100 µM | [3] > 100 µM | [4] > 100 µM | [5] > 100 µM | [6] 37.2 µM | [7] > 100 µM | [8] > 100 µM | [9] > 100 µM | [10] > 100 µM | [11] > 100 µM | [12] > 100 µM | [13] > 100 µM | [14] > 100 µM | [15] > 100 µM | [16] > 100 µM | [17] > 100 µM | [18] > 100 µM | [19] > 100 µM | [20] > 100 µM | [21] > 100 µM | [22] > 100 µM | [23] > 100 µM | [24] > 100 µM | [25] > 100 µM | [26] > 100 µM | [28] > 100 µM | [29] > 100 µM | [30] > 100 µM | [32] > 100 µM | [33] > 100 µM | [34] > 100 µM | [35] > 100 µM | [36] > 100 µM | [37] > 100 µM | [38] > 100 µM | [39] > 100 µM | [40] > 100 µM | [41] > 100 µM | [42] > 100 µM | [43] > 100 µM | [44] > 100 µM | [45] > 100 µM | [46] > 100 µM | [47] > 100 µM | [48] > 100 µM | [49] > 100 µM | [50] > 100 µM | [51] > 100 µM
active: [27] 0.649 µM
> 100000 nM: [31]

CN(C)CCCOC(=O)C(O)(Cc1ccccc1)C1CC1 (configuration not stated)
> 100000 nM: [31]
inactive: [1] > 100 µM | [2] > 100 µM | [3] > 100 µM | [5] > 100 µM | [6] > 100 µM | [7] > 100 µM | [8] > 100 µM | [9] > 100 µM | [10] > 100 µM | [52] 79.8 µM | [11] > 100 µM | [12] > 100 µM | [13] > 100 µM | [53] > 100 µM | [14] > 100 µM | [15] > 100 µM | [16] > 100 µM | [17] > 100 µM | [18] > 100 µM | [19] > 100 µM | [20] > 100 µM | [21] > 100 µM | [23] > 100 µM | [24] > 100 µM | [25] > 100 µM | [26] > 100 µM | [27] > 100 µM | [28] > 100 µM | [29] > 100 µM | [30] > 100 µM | [32] > 100 µM | [33] > 100 µM | [34] > 100 µM | [35] > 100 µM | [54] > 100 µM | [36] > 100 µM | [37] > 100 µM | [55] > 100 µM | [56] > 100 µM | [38] > 100 µM | [39] > 100 µM | [57] > 100 µM | [40] > 100 µM | [41] > 100 µM | [42] > 100 µM | [58] > 100 µM | [43] > 100 µM | [44] > 100 µM | [45] > 100 µM | [59] > 100 µM | [46] > 100 µM | [47] > 100 µM | [48] > 100 µM | [49] > 100 µM | [50] > 100 µM | [51] > 100 µM

COc1cccc(-c2cc(O)c3cc(N(C)C)ccc3n2)c1
inactive: [11] > 10 µM | [45] 4.95 µM and 7.4 µM
9.25 nM and 11.6 nM: [31]
active: [1] 44.9 nM and 24.3 nM | [5] 1.24 nM and 2.27 nM | [9] 10.2 nM and 5.13 nM | [12] 31.4 nM and 37.4 nM | [16] 22.9 nM and 14 nM | [17] 2.68 nM and 1.39 nM | [20] 37.6 nM and 23.7 nM | [22] 0.681 µM | [23] 1.76 nM and 18.8 nM | [26] < 0.01 µM | [32] 30.2 nM and 37.2 nM | [37] 42.7 nM and 25.8 nM | [39] 48.1 nM and 41.5 nM | [40] 25.6 nM and 16.7 nM | [43] 32.2 nM and 18.2 nM | [44] 30.4 nM and 28.2 nM
